Laboratory results taken from ChEMBL document CHEMBL3046001, “4-Thiazolidinone and 1-thia-3,4,9-triaza fluorene conjugates: synthesis, characterization and antimicrobial screening” (2013).
Converted amounts (≈) assume the structure as drawn. The source made the active and inactive calls. No cut-off for these calls is given here.

How the values were obtained:
[1] = test system: Staphylococcus aureus; assay: Antibacterial activity against Staphylococcus aureus MTCC 1430 assessed as growth inhibition at 1250 ug/mL after 48 hr by agar diffusion method; assay type: functional; conditions: MTCC 1430, 48 h, read-out: DIZ
[2] = test system: Escherichia coli; assay: Antibacterial activity against Escherichia coli MTCC 1573 assessed as growth inhibition at 1250 ug/mL after 48 hr by agar diffusion method; assay type: functional; conditions: MTCC 1573, 48 h, read-out: DIZ
[3] = test system: Penicillium chrysogenum; assay: Antifungal activity against Penicillium chrysogenum MTCC 161 assessed as growth inhibition at 750 ug/mL after 48 hr by agar diffusion method; assay type: functional; conditions: MTCC 161, 48 h, read-out: DIZ
[4] = test system: Penicillium chrysogenum; assay: Antifungal activity against Penicillium chrysogenum MTCC 161 assessed as growth inhibition after 24 hr by tube dilution method; assay type: functional; conditions: MTCC 161, 24 h
[5] = test system: Aspergillus niger; assay: Antifungal activity against Aspergillus niger MTCC 2546 assessed as growth inhibition at 250 ug/mL after 48 hr by agar diffusion method; assay type: functional; conditions: for zone of inhibition at 250 µg/mL: MTCC 2546, 48 h, read-out: DIZ
[6] = test system: Micrococcus luteus; assay: Antibacterial activity against Micrococcus luteus MTCC 1538 assessed as growth inhibition at 250 ug/mL after 48 hr by agar diffusion method; assay type: functional; conditions: for zone of inhibition at 250 µg/mL: MTCC 1538, 48 h, read-out: DIZ
[7] = test system: Pseudomonas fluorescens; assay: Antibacterial activity against Pseudomonas fluorescens MTCC 2421 assessed as growth inhibition at 1000 ug/mL after 48 hr by agar diffusion method; assay type: functional; conditions: MTCC 2421, 48 h, read-out: DIZ
[8] = test system: Staphylococcus aureus; assay: Antibacterial activity against Staphylococcus aureus MTCC 1430 assessed as growth inhibition at 100 ug/mL after 48 hr by agar diffusion method; assay type: functional, organism-based
[9] = test system: Penicillium chrysogenum; assay: Antifungal activity against Penicillium chrysogenum MTCC 161 assessed as growth inhibition at 250 ug/mL after 48 hr by agar diffusion method; assay type: functional; conditions: for zone of inhibition at 250 µg/mL: MTCC 161, 48 h, read-out: DIZ
[10] = test system: Staphylococcus aureus; assay: Antibacterial activity against Staphylococcus aureus MTCC 1430 assessed as growth inhibition at 750 ug/mL after 48 hr by agar diffusion method; assay type: functional; conditions: MTCC 1430, 48 h, read-out: DIZ
[11] = test system: Bacillus subtilis; assay: Antibacterial activity against Bacillus subtilis MTCC 441 assessed as growth inhibition at 1250 ug/mL after 48 hr by agar diffusion method; assay type: functional; conditions: MTCC 441, 48 h, read-out: DIZ
[12] = test system: Aspergillus niger; assay: Antifungal activity against Aspergillus niger MTCC 2546 assessed as growth inhibition at 100 ug/mL after 48 hr by agar diffusion method; assay type: functional, organism-based
[13] = test system: Escherichia coli; assay: Antibacterial activity against Escherichia coli MTCC 1573 assessed as growth inhibition at 100 ug/mL after 48 hr by agar diffusion method; assay type: functional; conditions: for zone of inhibition at 100 µg/mL: MTCC 1573, 48 h, read-out: DIZ
[14] = test system: Bacillus pumilus; assay: Antibacterial activity against Bacillus pumilus MTCC 1456 assessed as growth inhibition at 500 ug/mL after 48 hr by agar diffusion method; assay type: functional; conditions: MTCC 1456, 48 h, read-out: DIZ
[15] = test system: Escherichia coli; assay: Antibacterial activity against Escherichia coli MTCC 1573 assessed as growth inhibition after 24 hr by tube dilution method; assay type: functional; conditions: MTCC 1573, 24 h
[16] = test system: Staphylococcus aureus; assay: Antibacterial activity against Staphylococcus aureus MTCC 1430 assessed as growth inhibition after 24 hr by tube dilution method; assay type: functional; conditions: MTCC 1430, 24 h
[17] = test system: Micrococcus luteus; assay: Antibacterial activity against Micrococcus luteus MTCC 1538 assessed as growth inhibition after 24 hr by tube dilution method; assay type: functional; conditions: MTCC 1538, 24 h
[18] = test system: Pseudomonas fluorescens; assay: Antibacterial activity against Pseudomonas fluorescens MTCC 2421 assessed as growth inhibition at 250 ug/mL after 48 hr by agar diffusion method; assay type: functional; conditions: MTCC 2421, 48 h, read-out: DIZ
[19] = test system: Micrococcus luteus; assay: Antibacterial activity against Micrococcus luteus MTCC 1538 assessed as growth inhibition at 1250 ug/mL after 48 hr by agar diffusion method; assay type: functional; conditions: MTCC 1538, 48 h, read-out: DIZ
[20] = test system: Bacillus pumilus; assay: Antibacterial activity against Bacillus pumilus MTCC 1456 assessed as growth inhibition at 1250 ug/mL after 48 hr by agar diffusion method; assay type: functional; conditions: MTCC 1456, 48 h, read-out: DIZ
[21] = test system: Pseudomonas aeruginosa; assay: Antibacterial activity against Pseudomonas aeruginosa MTCC 424 assessed as growth inhibition at 100 ug/mL after 48 hr by agar diffusion method; assay type: functional; conditions: MTCC 424, 48 h, read-out: DIZ
[22] = test system: Bacillus pumilus; assay: Antibacterial activity against Bacillus pumilus MTCC 1456 assessed as growth inhibition at 1000 ug/mL after 48 hr by agar diffusion method; assay type: functional; conditions: MTCC 1456, 48 h, read-out: DIZ
[23] = test system: Aspergillus niger; assay: Antifungal activity against Aspergillus niger MTCC 2546 assessed as growth inhibition at 750 ug/mL after 48 hr by agar diffusion method; assay type: functional; conditions: MTCC 2546, 48 h, read-out: DIZ
[24] = test system: Micrococcus luteus; assay: Antibacterial activity against Micrococcus luteus MTCC 1538 assessed as growth inhibition at 100 ug/mL after 48 hr by agar diffusion method; assay type: functional

| Compound | zone of inhibition at 1250 µg/mL [1] [mm] | zone of inhibition at 1250 µg/mL [2] [mm] | zone of inhibition at 750 µg/mL [3] [mm] | MIC [4] [µg/mL] | zone of inhibition at 1000 µg/mL [7] [mm] | growth inhibition (GI) [8] | zone of inhibition at 750 µg/mL [10] [mm] | zone of inhibition at 1250 µg/mL [11] [mm] | growth inhibition (GI) [12] | zone of inhibition at 100 µg/mL [13] [mm] | zone of inhibition at 500 µg/mL [14] [mm] | MIC [15] [µg/mL] | MIC [16] [µg/mL] | MIC [17] [µg/mL] | zone of inhibition at 250 µg/mL [18] [mm] | zone of inhibition at 1250 µg/mL [19] [mm] | zone of inhibition at 1250 µg/mL [20] [mm] | zone of inhibition at 100 µg/mL [21] [mm] | zone of inhibition at 1000 µg/mL [22] [mm] | zone of inhibition at 750 µg/mL [23] [mm] | also measured |
| --- | --- | --- | --- | --- | --- | --- | --- | --- | --- | --- | --- | --- | --- | --- | --- | --- | --- | --- | --- | --- | --- |
| O=C1CSC(c2cccc3ccccc23)N1c1nnc2c3ccccc3nc-2s1 (centres undefined) | 18 | 18 | 10 | 200 (≈ 482 µM) | 19 | inactive | 12 | 20 | inactive | 8 | 11 | 50 (≈ 121 µM) | 200 (≈ 482 µM) | 250 (≈ 603 µM) | 10 | 16 | 26 | 7 | 20 | 10 | growth inhibition (GI) [5]: inactive; growth inhibition (GI) [6]: inactive; zone of inhibition at 250 µg/mL [9]: 8 mm; growth inhibition (GI) [24]: inactive |
| CC1SCC(=O)N1c1nnc2c3cc(Cl)ccc3nc-2s1 (centres undefined) | 19 | 21 | 14 | 250 (≈ 742 µM) | 15 | inactive | 13 | 21 | inactive | 9 | 12 | 30 (≈ 89.1 µM) | 150 (≈ 445 µM) | 150 (≈ 445 µM) | 7 | 19 | 18 | 7 | 15 | 13 | growth inhibition (GI) [5]: inactive; growth inhibition (GI) [6]: inactive; growth inhibition (GI) [9]: inactive; growth inhibition (GI) [24]: inactive |
| O=C1CSC(c2ccccn2)N1c1nnc2c3ccccc3nc-2s1 (centres undefined) | 15 | 22 | 13 | 150 (≈ 410 µM) | 18 | inactive | 10 | 18 | inactive | 7 | 15 | 40 (≈ 109 µM) | 200 (≈ 547 µM) | 250 (≈ 684 µM) | 10 | 17 | 21 | 7 | 19 | 14 | zone of inhibition at 250 µg/mL [5]: 8 mm; zone of inhibition at 250 µg/mL [6]: 8 mm; zone of inhibition at 250 µg/mL [9]: 9 mm; growth inhibition (GI) [24]: inactive |
| O=C1CSC(c2ccccn2)N1c1nnc2c3cc(Cl)ccc3nc-2s1 (centres undefined) | 17 | 23 | 15 | 200 (≈ 500 µM) | 17 | inactive | 11 | 22 | inactive | – | 15 | 150 (≈ 375 µM) | 250 (≈ 625 µM) | 250 (≈ 625 µM) | 8 | 19 | 23 | 7 | 20 | 15 | zone of inhibition at 250 µg/mL [5]: 9 mm; zone of inhibition at 250 µg/mL [6]: 7 mm; zone of inhibition at 250 µg/mL [9]: 9 mm; growth inhibition (GI) [13]: inactive; growth inhibition (GI) [24]: inactive |
| O=C1CSC(c2cccc3ccccc23)N1c1nnc2c3cc(Cl)ccc3nc-2s1 (centres undefined) | 15 | 20 | 15 | 150 (≈ 334 µM) | 20 | inactive | 8 | 20 | inactive | 7 | 13 | 30 (≈ 66.8 µM) | 150 (≈ 334 µM) | 150 (≈ 334 µM) | 11 | 20 | 20 | 8 | 17 | 13 | zone of inhibition at 250 µg/mL [5]: 8 mm; growth inhibition (GI) [6]: inactive; zone of inhibition at 250 µg/mL [9]: 8 mm; growth inhibition (GI) [24]: inactive |
| CC1SCC(=O)N1c1nnc2c3ccccc3nc-2s1 (centres undefined) | 17 | 20 | 12 | 250 (≈ 827 µM) | 21 | inactive | 11 | 22 | inactive | 7 | 12 | 40 (≈ 132 µM) | 250 (≈ 827 µM) | 40 (≈ 132 µM) | 10 | 19 | 25 | 8 | 22 | 11 | growth inhibition (GI) [5]: inactive; zone of inhibition at 250 µg/mL [6]: 10 mm; growth inhibition (GI) [9]: inactive; zone of inhibition at 100 µg/mL ([24]; MTCC 1538, 48 h, read-out: DIZ): 8 mm |
